dTm data for eleven compounds are collected here from PMC12136037, “Type II kinase inhibitors that target Parkinson’s disease–associated LRRK2” (Science Advances, 2025).

Common to all, as to test: DSF 100 kinase selectivity screen;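 also: compound tested at 20 µM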
Holding throughout (type): binding

Assay [1] deals with T1, ~100 representative kinases (Homo sapiens, UniProt O75582).
T1 construct: Recombinant protein kinase domains with a concentration of 2 μM
The following applies: Protein RPS6KA5; DSF; average of three replicates. The gist of the method:
(§1)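 Each kinase domain, at 2 μM, is mixed with 20 μM test compound and SYPRO Orange in Hepes (20 mM, pH 7.5) with 500 mM NaCl. Temperature is then raised at 3°C/min and fluorescence-monitored unfolding yields the melting temperature change, ΔTm in degrees Celsius.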

The target of assay [2] is T2, ~100 representative kinases (Homo sapiens, UniProt P15056).
T2 construct: Recombinant protein kinase domains with a concentration of 2 μM
T2 sequence (P15056 whole entry, the tested form may be a part): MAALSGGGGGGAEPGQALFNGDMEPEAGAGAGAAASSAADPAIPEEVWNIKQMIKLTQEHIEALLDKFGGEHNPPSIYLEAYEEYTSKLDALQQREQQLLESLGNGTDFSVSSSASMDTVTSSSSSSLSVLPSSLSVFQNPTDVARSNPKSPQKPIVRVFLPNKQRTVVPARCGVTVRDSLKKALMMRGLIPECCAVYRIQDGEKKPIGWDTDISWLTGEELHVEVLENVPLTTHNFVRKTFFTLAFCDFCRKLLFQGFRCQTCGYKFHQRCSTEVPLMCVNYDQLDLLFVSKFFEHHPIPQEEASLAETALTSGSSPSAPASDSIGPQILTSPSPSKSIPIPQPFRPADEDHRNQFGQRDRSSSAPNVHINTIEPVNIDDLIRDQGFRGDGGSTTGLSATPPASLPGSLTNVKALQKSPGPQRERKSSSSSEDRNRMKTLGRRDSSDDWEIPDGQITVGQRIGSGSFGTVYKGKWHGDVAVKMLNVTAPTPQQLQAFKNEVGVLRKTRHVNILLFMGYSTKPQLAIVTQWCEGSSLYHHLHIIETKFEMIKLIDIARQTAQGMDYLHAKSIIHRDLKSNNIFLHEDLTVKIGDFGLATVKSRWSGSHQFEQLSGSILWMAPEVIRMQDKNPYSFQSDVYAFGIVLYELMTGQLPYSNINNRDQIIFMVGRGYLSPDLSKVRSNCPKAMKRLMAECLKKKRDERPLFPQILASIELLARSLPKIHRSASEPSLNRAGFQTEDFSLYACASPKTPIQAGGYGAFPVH
Conditions: Protein BRAF; average of three replicates. Summed up:
as §1

For assay [3], the target named is T3, ~100 representative kinases (Homo sapiens, UniProt P27448).
T3 construct: Recombinant protein kinase domains with a concentration of 2 μM
T3 sequence (P27448 whole entry, the tested form may be a part): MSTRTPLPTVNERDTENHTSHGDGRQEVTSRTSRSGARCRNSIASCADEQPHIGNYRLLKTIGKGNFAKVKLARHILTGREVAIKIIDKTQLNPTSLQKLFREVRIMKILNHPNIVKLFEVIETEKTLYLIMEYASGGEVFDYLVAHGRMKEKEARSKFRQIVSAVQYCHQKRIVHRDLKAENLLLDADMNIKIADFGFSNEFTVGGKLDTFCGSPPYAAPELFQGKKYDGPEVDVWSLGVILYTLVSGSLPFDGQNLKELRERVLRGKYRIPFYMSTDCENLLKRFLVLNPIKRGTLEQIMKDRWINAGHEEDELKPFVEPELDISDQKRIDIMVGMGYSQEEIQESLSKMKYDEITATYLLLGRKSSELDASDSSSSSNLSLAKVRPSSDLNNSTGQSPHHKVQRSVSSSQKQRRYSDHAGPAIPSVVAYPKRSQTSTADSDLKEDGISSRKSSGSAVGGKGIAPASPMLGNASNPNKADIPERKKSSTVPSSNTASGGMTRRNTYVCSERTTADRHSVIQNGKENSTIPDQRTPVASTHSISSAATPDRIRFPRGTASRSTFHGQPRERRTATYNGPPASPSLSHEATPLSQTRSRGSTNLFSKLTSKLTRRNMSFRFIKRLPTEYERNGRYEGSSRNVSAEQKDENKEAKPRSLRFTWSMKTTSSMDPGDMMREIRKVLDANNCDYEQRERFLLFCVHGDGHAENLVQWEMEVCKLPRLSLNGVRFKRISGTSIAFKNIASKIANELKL
The following applies: protein MARK3; average of three replicates. Summed up: as §1

Assay [4] has as its target T4, ~100 representative kinases (Homo sapiens, UniProt P49841).
T4 construct: Recombinant protein kinase domains with a concentration of 2 μM
The following applies: protein GSK3B; average of three replicates. Summed up:
as §1

The target in assay [5] is T5, ~100 representative kinases (Homo sapiens, UniProt P68400).
T5 construct: Recombinant protein kinase domains with a concentration of 2 μM
T5 sequence (P68400 whole entry, the tested form may be a part): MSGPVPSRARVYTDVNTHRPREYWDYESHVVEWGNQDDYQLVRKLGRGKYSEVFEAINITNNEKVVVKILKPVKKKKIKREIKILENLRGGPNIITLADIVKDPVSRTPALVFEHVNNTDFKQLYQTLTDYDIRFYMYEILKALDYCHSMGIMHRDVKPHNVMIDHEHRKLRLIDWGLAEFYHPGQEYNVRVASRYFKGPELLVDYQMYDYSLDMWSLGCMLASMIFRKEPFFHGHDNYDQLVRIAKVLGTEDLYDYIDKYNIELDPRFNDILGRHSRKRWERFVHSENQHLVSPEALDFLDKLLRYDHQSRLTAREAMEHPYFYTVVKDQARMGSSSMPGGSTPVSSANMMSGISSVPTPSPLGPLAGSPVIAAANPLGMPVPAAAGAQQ
The following applies: Protein CK2A1; average of three replicates. Summed up: as §1

In assay [6] the target is T6, ~100 representative kinases (Homo sapiens, UniProt Q12866).
T6 construct: Recombinant protein kinase domains with a concentration of 2 μM
T6 sequence (Q12866 21-999): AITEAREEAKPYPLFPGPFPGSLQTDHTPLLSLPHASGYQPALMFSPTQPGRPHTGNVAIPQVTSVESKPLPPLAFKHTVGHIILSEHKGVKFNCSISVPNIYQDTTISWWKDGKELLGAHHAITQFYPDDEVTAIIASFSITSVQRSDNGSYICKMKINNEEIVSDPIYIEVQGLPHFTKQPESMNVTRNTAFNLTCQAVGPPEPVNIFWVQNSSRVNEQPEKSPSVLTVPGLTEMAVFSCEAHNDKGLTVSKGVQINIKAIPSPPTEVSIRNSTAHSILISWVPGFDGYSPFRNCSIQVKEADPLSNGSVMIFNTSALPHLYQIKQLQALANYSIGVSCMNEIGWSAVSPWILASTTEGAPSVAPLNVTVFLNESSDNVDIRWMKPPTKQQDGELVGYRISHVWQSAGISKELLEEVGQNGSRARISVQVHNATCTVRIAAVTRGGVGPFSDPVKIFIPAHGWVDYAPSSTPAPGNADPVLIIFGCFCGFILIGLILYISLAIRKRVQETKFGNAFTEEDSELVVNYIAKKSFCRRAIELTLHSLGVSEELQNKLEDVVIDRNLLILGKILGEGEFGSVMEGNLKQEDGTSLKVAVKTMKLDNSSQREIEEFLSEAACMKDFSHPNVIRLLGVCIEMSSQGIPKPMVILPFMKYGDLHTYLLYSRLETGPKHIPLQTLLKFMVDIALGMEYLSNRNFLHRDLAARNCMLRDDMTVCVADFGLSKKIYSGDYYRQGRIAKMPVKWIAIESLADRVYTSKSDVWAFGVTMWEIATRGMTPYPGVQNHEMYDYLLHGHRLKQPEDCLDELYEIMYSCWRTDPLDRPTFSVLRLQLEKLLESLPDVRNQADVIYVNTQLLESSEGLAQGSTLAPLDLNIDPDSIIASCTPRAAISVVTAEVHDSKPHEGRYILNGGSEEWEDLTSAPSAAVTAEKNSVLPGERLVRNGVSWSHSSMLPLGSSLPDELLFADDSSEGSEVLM
Conditions: protein MERTK; average of three replicates. The gist of the method:
as §1

The target in assay [7] is T7, ~100 representative kinases (Homo sapiens, UniProt Q16566).
T7 construct: Recombinant protein kinase domains with a concentration of 2 μM
T7 sequence (Q16566 1-473): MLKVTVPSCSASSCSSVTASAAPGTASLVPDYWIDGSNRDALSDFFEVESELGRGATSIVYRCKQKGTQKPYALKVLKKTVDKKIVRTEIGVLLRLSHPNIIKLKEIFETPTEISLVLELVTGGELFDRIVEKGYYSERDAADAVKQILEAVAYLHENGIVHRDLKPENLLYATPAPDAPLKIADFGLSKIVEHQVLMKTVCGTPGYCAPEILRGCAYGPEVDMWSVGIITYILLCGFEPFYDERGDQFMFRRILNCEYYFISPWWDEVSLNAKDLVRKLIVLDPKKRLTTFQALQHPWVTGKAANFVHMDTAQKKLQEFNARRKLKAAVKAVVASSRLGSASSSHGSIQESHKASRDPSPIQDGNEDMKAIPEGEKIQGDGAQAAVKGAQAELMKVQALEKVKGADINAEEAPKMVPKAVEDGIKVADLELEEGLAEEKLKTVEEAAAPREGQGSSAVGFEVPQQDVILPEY
The following applies: Protein CAMK4; average of three replicates. The gist of the method:
as §1

For assay [8], the target named is T8, ~100 representative kinases (Homo sapiens, UniProt Q8TDX7).
T8 construct: Recombinant protein kinase domains with a concentration of 2 μM
T8 sequence (Q8TDX7 whole entry, the tested form may be a part): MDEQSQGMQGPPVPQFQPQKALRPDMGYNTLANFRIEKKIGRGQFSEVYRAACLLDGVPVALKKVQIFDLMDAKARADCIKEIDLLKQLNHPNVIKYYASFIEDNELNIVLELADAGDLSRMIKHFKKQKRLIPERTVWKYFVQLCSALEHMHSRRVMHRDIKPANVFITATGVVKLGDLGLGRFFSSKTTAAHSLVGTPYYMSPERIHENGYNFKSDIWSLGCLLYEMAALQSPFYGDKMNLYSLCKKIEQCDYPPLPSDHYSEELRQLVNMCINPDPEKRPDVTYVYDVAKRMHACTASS
The following applies: protein NEK7; average of three replicates. The gist of the method: as §1

Assay [9] has as its target T9, ~100 representative kinases (Homo sapiens, UniProt Q99986).
T9 construct: Recombinant protein kinase domains with a concentration of 2 μM
T9 sequence (Q99986 1-396): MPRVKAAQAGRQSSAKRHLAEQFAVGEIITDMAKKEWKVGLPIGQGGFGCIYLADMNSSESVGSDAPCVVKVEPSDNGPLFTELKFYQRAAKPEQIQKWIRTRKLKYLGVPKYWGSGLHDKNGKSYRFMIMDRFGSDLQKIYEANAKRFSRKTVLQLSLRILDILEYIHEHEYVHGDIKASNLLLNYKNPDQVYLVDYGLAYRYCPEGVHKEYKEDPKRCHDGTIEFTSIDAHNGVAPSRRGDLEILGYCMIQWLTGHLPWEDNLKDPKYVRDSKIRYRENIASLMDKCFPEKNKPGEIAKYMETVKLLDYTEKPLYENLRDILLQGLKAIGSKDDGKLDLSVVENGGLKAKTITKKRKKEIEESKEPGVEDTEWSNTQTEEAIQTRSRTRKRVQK
Conditions: Protein VRK1; DSF; average of three replicates. Summed up: as §1

Assay [10] addresses T10, ~100 representative kinases (Homo sapiens, UniProt Q9UEW8).
T10 construct: Recombinant protein kinase domains with a concentration of 2 μM
The following applies: Protein STK39; DSF; average of three replicates. The gist of the method: as §1

T4 sequence (P49841 whole entry, the tested form may be a part): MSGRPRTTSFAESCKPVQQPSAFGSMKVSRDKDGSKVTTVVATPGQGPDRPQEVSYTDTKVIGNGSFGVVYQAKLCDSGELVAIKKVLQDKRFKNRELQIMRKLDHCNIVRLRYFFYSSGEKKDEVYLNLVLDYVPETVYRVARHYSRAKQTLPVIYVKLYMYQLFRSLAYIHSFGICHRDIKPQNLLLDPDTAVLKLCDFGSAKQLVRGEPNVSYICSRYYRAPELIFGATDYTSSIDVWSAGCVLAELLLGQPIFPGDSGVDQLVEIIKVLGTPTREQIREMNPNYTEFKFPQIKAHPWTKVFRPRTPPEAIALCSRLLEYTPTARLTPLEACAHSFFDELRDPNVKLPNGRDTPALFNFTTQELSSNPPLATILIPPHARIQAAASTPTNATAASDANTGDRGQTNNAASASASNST
T1 sequence (O75582 whole entry, the tested form may be a part): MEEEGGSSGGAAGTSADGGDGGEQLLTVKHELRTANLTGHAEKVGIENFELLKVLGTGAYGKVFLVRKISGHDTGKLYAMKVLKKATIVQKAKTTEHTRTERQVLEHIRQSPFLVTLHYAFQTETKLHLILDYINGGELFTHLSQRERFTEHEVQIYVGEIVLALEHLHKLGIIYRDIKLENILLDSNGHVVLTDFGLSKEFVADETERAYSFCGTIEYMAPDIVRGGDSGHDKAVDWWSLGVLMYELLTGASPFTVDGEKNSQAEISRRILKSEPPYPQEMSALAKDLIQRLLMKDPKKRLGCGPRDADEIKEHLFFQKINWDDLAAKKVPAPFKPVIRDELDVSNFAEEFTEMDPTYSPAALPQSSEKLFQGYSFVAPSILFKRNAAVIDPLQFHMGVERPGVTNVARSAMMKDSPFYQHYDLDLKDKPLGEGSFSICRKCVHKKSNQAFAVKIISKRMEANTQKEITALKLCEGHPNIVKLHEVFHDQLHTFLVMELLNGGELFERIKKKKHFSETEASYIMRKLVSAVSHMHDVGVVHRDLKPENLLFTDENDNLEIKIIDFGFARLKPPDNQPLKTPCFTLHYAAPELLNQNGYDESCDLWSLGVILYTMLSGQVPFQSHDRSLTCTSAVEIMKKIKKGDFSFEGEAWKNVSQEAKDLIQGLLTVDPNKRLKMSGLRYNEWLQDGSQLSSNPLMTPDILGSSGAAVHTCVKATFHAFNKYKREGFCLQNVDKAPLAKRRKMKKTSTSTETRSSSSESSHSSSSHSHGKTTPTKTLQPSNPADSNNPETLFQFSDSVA

`COc1ccc(NC(=O)C2(C(=O)Nc3cccc(-c4c[nH]c5ncnc(N6CCOCC6)c45)c3)CC2)cc1` [Compound 16]: the dTm is listed as 0.21 K in [1]; 4.18 K in assay [2]; 2.45 K in [3]; 2.09 K in assay [4]; 1.00 K in [5]; -1.03 K in assay [6]. The dTm in assay [7] is -0.20 K; in [8], -0.67 K; in assay [9], 0.60 K; in assay [10], -0.15 K.
Take `Cc1cc(NC(=O)C2(C(=O)Nc3ccc(F)cc3)CC2)cc(-c2c[nH]c3ncnc(N4CCOCC4)c23)c1` [Compound 6]: the dTm was determined as 3.89 K in assay [1]; 12.36 K in [2]; 4.35 K in assay [3]; 3.83 K in assay [4]; 0.12 K in assay [5]; 1.86 K in assay [6]. Moreover, the dTm in assay [7] was 1.41 K; in assay [8], 0.23 K; in assay [9], 0.70 K; in assay [10], 1.36 K.
Turning to `O=C(Nc1cccc(-c2c[nH]c3ncnc(N4CCOCC4)c23)c1)C1(C(=O)Nc2ccc(F)c(Br)c2F)CC1` [Compound 26], the dTm in assay [1] is on record as -0.55 K; in assay [2] it was 9.02 K; in assay [3], 3.94 K; in assay [4] it was 7.56 K; in [5], -1.70 K; in assay [6] it was 1.09 K. Further, the dTm in assay [7] is reported as 1.91 K; in assay [8], -0.33 K; in assay [9], 1.02 K; in assay [10], 0.00 K.
As for `O=C(Nc1cccc(-c2c[nH]c3ncnc(N4CCOCC4)c23)c1)C1(C(=O)Nc2cccc3c2CCC3)CC1` [Compound 11], the dTm is on record as 0.69 K in assay [1]; 10.02 K in assay [2]; 3.89 K in [3]; 8.12 K in assay [4]; -1.70 K in [5]; 2.34 K in assay [6]. The dTm came out at 2.09 K in assay [7], 0.84 K in [8], 0.56 K in [9] and 1.05 K in assay [10].
Turning to `Cn1cc(-c2c[nH]c3ncnc(N4CCOCC4)c23)cc1C#N` [PFE-360], the dTm in [1] worked out at 0.69 K; in assay [2] it was 2.10 K; in [3] it was 2.70 K; in [4] it was 5.50 K; in [5] it was 0.25 K; in [6], 0.31 K. Moreover, the dTm is 0.56 K in assay [7], -0.13 K in [8], 0.0159 K in assay [9] and -0.25 K in assay [10].
As to `C[C@@H]1CN(c2cc(-c3n[nH]c4ccc(OC5(C)CC5)cc34)ncn2)C[C@H](C)O1` [MLi2], the dTm is listed as -1.02 K in assay [1]; 0.50 K in assay [2]; -1.07 K in assay [3]; 0.56 K in [4]; 0.17 K in [5]; 0.0155 K in [6]. Also, the dTm in assay [7] was found to be 1.22 K; in assay [8], 0.03 K; in assay [9], 0.11 K; in assay [10] it was 0.27 K.
Consider `O=C(Nc1ccc(F)cc1)C1(C(=O)Nc2cccc(-c3c[nH]c4ncnc(N5CCOCC5)c34)c2)CC1` [Compound 2], for which the dTm in assay [1] is 4.64 K; in assay [2], 9.50 K; in [3], 4.79 K; in [4] it was 6.47 K; in assay [5] it was 0.00 K; in assay [6] it was 2.38 K. Besides, the dTm is reported as 2.18 K in [7], -0.93 K in assay [8], 0.75 K in assay [9] and 1.95 K in [10].
`CCSc1nc(NC)c2c(-c3cccc(NC(=O)Nc4cc(C(C)(C)C)nn4-c4ccc(C)cc4)c3)c[nH]c2n1` [Compound 32]: the dTm in assay [1] is 0.23 K; in [2], 0.90 K; in assay [3], 0.16 K; in assay [4], -0.49 K; in assay [5], 0.23 K; in assay [6], 0.0365 K. Moreover, the dTm in [7] is given as 0.28 K; in assay [8] it was -0.18 K; in [9] it was -0.68 K; in assay [10] it was 0.77 K.
Turning to `O=C(Nc1cccc(-c2c[nH]c3ncnc(N4CCOCC4)c23)c1)C1(C(=O)Nc2ccc(F)c(Br)c2)CC1` [Compound 19], the dTm in [1] is given as 6.08 K; in assay [2], 13.24 K; in assay [3], 7.11 K; in assay [4] it was 0.00 K; in [5] it was 0.10 K; in assay [6] it was 2.86 K. Also, the dTm is given as 4.72 K in [7], -1.14 K in assay [8], 1.65 K in [9] and 1.45 K in assay [10].
As for `COc1cc(NC(=O)C2(C(=O)Nc3cccc(-c4c[nH]c5ncnc(N6CCOCC6)c45)c3)CC2)ccc1F` [Compound 21], the dTm in assay [1] is 4.31 K; in assay [2], 10.93 K; in [3], 6.63 K; in [4], 8.20 K; in assay [5], 1.43 K; in [6], 0.18 K. Also, the dTm in assay [7] came out at 2.09 K; in assay [8], 0.39 K; in assay [9], 0.93 K; in assay [10], 1.92 K.
As for `Cc1cc(NC(=O)C2(C(=O)Nc3cccc(-c4c[nH]c5ncnc(N6CCOCC6)c45)c3)CC2)ccc1F` [Compound 20], the dTm in assay [1] is given as 7.70 K; in assay [2], 13.62 K; in [3], 8.85 K; in [4], 9.68 K; in assay [5], -0.56 K; in [6] it was 2.15 K. Moreover, the dTm in [7] was 4.77 K; in assay [8], 0.98 K; in assay [9] it was 1.43 K; in assay [10], 3.28 K.
